# Reference: patent US20210128596A1, “COMPOSITIONS AND METHODS FOR TREATING SEPTIC CARDIOMYOPATHY” (UNIVERSITY OF PENNSYLVANIA, priority 2017, published 2021)
# How the values were obtained:
# [1] = Plasma glucose and triglyceride levels in septic mice; format: in vivo, mouse
# [2] = system: cardiac tissue isolated from septic mice; test: Autophagy markers (LC3BII/LC3BI, Map1lc3b, BNIP3) in cardiac tissue; format: in vivo, mouse
# Procedure: (§1) RNA purification and gene expression analysis—Total RNA was purified from AC16 cells or hearts using the TRIzol reagent according to the instructions of the manufacturer (Invitrogen). DNase-treated RNA was used for cDNA synthesis using the ProtoScript II First Strand cDNA Synthesis Kit (New England Biolabs). Quantitative real-time PCR was performed with the Sybr Select Master Mix (Applied Biosystems). Incorporation of the SYBR green dye into the PCR products was monitored with the Applied Biosystems StepOnePlus Real-Time PCR System. Samples were normalized against mouse 36B4 or human rps13 RNA.
# (§2) Protein purification and analysis—Isolated heart tissue or AC16 cells were homogenized in radioimmune precipitation assay buffer containing protease and phosphatase inhibitors (Pierce Protease and Phosphatase Inhibitor Mini Tablets, Thermo Scientific). 30-50 μg of total protein extract was applied to SDS-PAGE and transferred onto nitrocellulose membranes.
# MCU and MICU1 = MCU and MICU1 mRNA and protein levels after LPS; format: in vivo, mouse; details: LPS with SDG
# Procedure: Mice were either sham treated or treated with LPS in with or without SDG (n=3 for each group) and the levels of MCU and MICU1 mRNAs were measured in quantitative PCR while the levels of protein were assessed through western blot.
# as §1, §2
# AC16 cells = test: mRNA levels of fusion and fission markers, quantitative PCR, LPS; format: cell-based, human
# Procedure: AC16 cells were either left untreated or treated with Liposaccharide (LPS) in the absence or presence of SDG; the levels of DRP1, Opa, MFN1, MFN2, and FIS1 mRNAs were measured in quantitative PCR.
# as §1
# IL-1α, IL-1β, IL-6, TNFα = test: Cardiac mRNA expression of inflammatory cytokines; format: in vivo, mouse; details: 6 hours or 12 hours post-CLP
# Procedure: as §1
smiles,measurement,setting,value
"COc1cc(C[C@@H](CO[C@@H]2O[C@H](CO)[C@@H](O)[C@H](O)[C@H]2O)[C@H](CO[C@@H]2O[C@H](CO)[C@@H](O)[C@H](O)[C@H]2O)Cc2ccc(O)c(OC)c2)ccc1O [LGM2605, secoisolariciresinol diglucoside]",plasma glucose levels,[1]; 6 hours and 12 hours post-CLP,hypoglycemia in septic mice was not alleviated by the administration of LGM2605
same,plasma triglyceride levels,[1]; 12 hours after surgery,"trend of increase, which did not occur in septic mice treated with LGM2605"
same,autophagy markers (LC3BII/LC3BI ratio; Map1lc3b and BNIP3 mRNA),[2]; cardiac tissue from septic mice,Neither marker was alleviated by LGM2605
same,expression of the mitochondrial damage marker BNIP3,[2]; septic mice following LGM2605 administration,trend for reduced expression of the mitochondrial damage marker BNIP3
same,MCU and MICU1 mRNA levels,MCU and MICU1,restored mRNA expression
same,MCU protein level (western blot),MCU and MICU1,reverses the LPS-mediated decrease of MCU protein level
same,MICU1 protein level (western blot),MCU and MICU1,increases MICU1 protein level
same,"levels of DRP1, Opa, MFN1, MFN2, and FIS1 mRNAs",AC16 cells; 6-hour LPS treatment (FIG. 8A),restored the levels of all the markers
same,"levels of DRP1, Opa, MFN1, MFN2, and FIS1 mRNAs",AC16 cells; 12 hour LPS treatment (FIG. 8B),"restored the levels of all the markers, although only the change in MFN2 levels was statistically significant"
same,"cardiac mRNA levels of IL-1α, IL-1β, IL-6, and TNFα","IL-1α, IL-1β, IL-6, TNFα",did not reduce mRNA levels
